Test system: not given
Experiment: not given
Details: not given

Q: For `COC(=O)c1nc(-c2cc3nsnc3cc2F)cc(N)c1Cl` [Compound 13], which melting point is on record?
A: 218 to 220 °C

Test system: CYPES: yellow nutsedge (Cyperus esculentus)
Experiment: Post-Emergent Test II herbicidal activity
Format: in vivo
Details: post-emergence, 336 h, 35 g ai/ha, 14 days, read-out: Visual Growth Reduction (%) 14 Days After Application CYPES
Outline: (§1)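 Visual injury rating (0 = no injury, 100 = complete kill) taken 14 d after post-emergent foliar spray, relative to untreated plants. Seedlings at first/second true leaf stage; spray volume 187 L/ha; rates from highest down to 1/16× by serial dilution; subirrigation after treatment.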

Q: For `COC(=O)c1nc(-c2cc3nsnc3cc2F)cc(N)c1Cl` [Compound 13], which pest or weed control at 35 g/ha is on record?
A: 0 to 29%

Same assay, conditions: post-emergence, 336 h, 70 g ai/ha, 14 days, read-out: Visual Growth Reduction (%) 14 Days After Application CYPES

Q: Which pest or weed control at 70 g/ha does the source give for `COC(=O)c1nc(-c2cc3nsnc3cc2F)cc(N)c1Cl` [Compound 13] here?
A: 0 to 29%

Same assay, conditions: post-emergence, 336 h, 140 g ai/ha, 14 days, read-out: Visual Growth Reduction (%) 14 Days After Application CYPES

Q: With `COC(=O)c1nc(-c2cc3nsnc3cc2F)cc(N)c1Cl` [Compound 13] as the molecule, how does the pest or weed control at 140 g/ha read?
A: 30 to 44%

Test system: ORYSA: rice (Oryza sativa)
Experiment: Post-Emergent Test II herbicidal activity
Format: in vivo
Details: post-emergence, 336 h, 35 g ai/ha, 14 days, read-out: Visual Growth Reduction (%) 14 Days After Application ORYSA
Outline: as §1

Q: With `COC(=O)c1nc(-c2cc3nsnc3cc2F)cc(N)c1Cl` [Compound 13] as the molecule, how does the pest or weed control at 35 g/ha read?
A: 0 to 29%

Same assay, conditions: post-emergence, 336 h, 70 g ai/ha, 14 days, read-out: Visual Growth Reduction (%) 14 Days After Application ORYSA

Q: For `COC(=O)c1nc(-c2cc3nsnc3cc2F)cc(N)c1Cl` [Compound 13], which pest or weed control at 70 g/ha is on record?
A: 30 to 44%

Same assay, conditions: post-emergence, 336 h, 140 g ai/ha, 14 days, read-out: Visual Growth Reduction (%) 14 Days After Application ORYSA

Q: For `COC(=O)c1nc(-c2cc3nsnc3cc2F)cc(N)c1Cl` [Compound 13], which pest or weed control at 140 g/ha is on record?
A: 30 to 44%

Test system: ZEAMX: maize, corn (Zea mays)
Experiment: Post-Emergent Test II herbicidal activity
Format: in vivo
Details: post-emergence, 336 h, 35 g ai/ha, 14 days, read-out: Visual Growth Reduction (%) 14 Days After Application ZEAMX
Outline: as §1

Q: For `COC(=O)c1nc(-c2cc3nsnc3cc2F)cc(N)c1Cl` [Compound 13], which pest or weed control at 35 g/ha is on record?
A: 60 to 74%

Same assay, conditions: post-emergence, 336 h, 70 g ai/ha, 14 days, read-out: Visual Growth Reduction (%) 14 Days After Application ZEAMX

Q: For `COC(=O)c1nc(-c2cc3nsnc3cc2F)cc(N)c1Cl` [Compound 13], which pest or weed control at 70 g/ha is on record?
A: 75 to 84%

Same assay, conditions: post-emergence, 336 h, 140 g ai/ha, 14 days, read-out: Visual Growth Reduction (%) 14 Days After Application ZEAMX

Q: With `COC(=O)c1nc(-c2cc3nsnc3cc2F)cc(N)c1Cl` [Compound 13] as the molecule, how does the pest or weed control at 140 g/ha read?
A: 85 to 94%

Test system: AMARE: redroot pigweed (Amaranthus retroflexus)
Experiment: Post-Emergent Test II herbicidal activity
Format: in vivo
Details: post-emergence, 336 h, 35 g ai/ha, 14 days, read-out: Visual Growth Reduction (%) 14 Days After Application AMARE
Outline: as §1

Q: For `COC(=O)c1nc(-c2cc3nsnc3cc2F)cc(N)c1Cl` [Compound 13], which pest or weed control at 35 g/ha is on record?
A: 95 to 100%

Same assay, conditions: post-emergence, 336 h, 70 g ai/ha, 14 days, read-out: Visual Growth Reduction (%) 14 Days After Application AMARE

Q: For `COC(=O)c1nc(-c2cc3nsnc3cc2F)cc(N)c1Cl` [Compound 13], which pest or weed control at 70 g/ha is on record?
A: 95 to 100%

Same assay, conditions: post-emergence, 336 h, 140 g ai/ha, 14 days, read-out: Visual Growth Reduction (%) 14 Days After Application AMARE

Q: With `COC(=O)c1nc(-c2cc3nsnc3cc2F)cc(N)c1Cl` [Compound 13] as the molecule, how does the pest or weed control at 140 g/ha read?
A: 95 to 100%

Test system: ECHCG: barnyardgrass (Echinochloa crus-galli)
Experiment: Post-Emergent Test II herbicidal activity
Format: in vivo
Details: post-emergence, 336 h, 35 g ai/ha, 14 days, read-out: Visual Growth Reduction (%) 14 Days After Application ECHCG
Outline: as §1

Q: For `COC(=O)c1nc(-c2cc3nsnc3cc2F)cc(N)c1Cl` [Compound 13], which pest or weed control at 35 g/ha is on record?
A: 75 to 84%

Same assay, conditions: post-emergence, 336 h, 70 g ai/ha, 14 days, read-out: Visual Growth Reduction (%) 14 Days After Application ECHCG

Q: With `COC(=O)c1nc(-c2cc3nsnc3cc2F)cc(N)c1Cl` [Compound 13] as the molecule, how does the pest or weed control at 70 g/ha read?
A: 85 to 94%

Same assay, conditions: post-emergence, 336 h, 140 g ai/ha, 14 days, read-out: Visual Growth Reduction (%) 14 Days After Application ECHCG

Q: Which pest or weed control at 140 g/ha does the source give for `COC(=O)c1nc(-c2cc3nsnc3cc2F)cc(N)c1Cl` [Compound 13] here?
A: 85 to 94%

Test system: TRZAS: wheat, spring (Triticum aestivum)
Experiment: Post-Emergent Test II herbicidal activity
Format: in vivo
Details: post-emergence, 336 h, 35 g ai/ha, 14 days, read-out: Visual Growth Reduction (%) 14 Days After Application TRZAS
Outline: as §1

Q: Which pest or weed control at 35 g/ha does the source give for `COC(=O)c1nc(-c2cc3nsnc3cc2F)cc(N)c1Cl` [Compound 13] here?
A: 0 to 29%

Same assay, conditions: post-emergence, 336 h, 70 g ai/ha, 14 days, read-out: Visual Growth Reduction (%) 14 Days After Application TRZAS

Q: With `COC(=O)c1nc(-c2cc3nsnc3cc2F)cc(N)c1Cl` [Compound 13] as the molecule, how does the pest or weed control at 70 g/ha read?
A: 0 to 29%

Same assay, conditions: post-emergence, 336 h, 140 g ai/ha, 14 days, read-out: Visual Growth Reduction (%) 14 Days After Application TRZAS

Q: Which pest or weed control at 140 g/ha does the source give for `COC(=O)c1nc(-c2cc3nsnc3cc2F)cc(N)c1Cl` [Compound 13] here?
A: 0 to 29%

Test system: SETFA: giant foxtail (Setaria faberi)
Experiment: Post-Emergent Test II herbicidal activity
Format: in vivo
Details: post-emergence, 336 h, 35 g ai/ha, 14 days, read-out: Visual Growth Reduction (%) 14 Days After Application SETFA
Outline: as §1

Q: With `COC(=O)c1nc(-c2cc3nsnc3cc2F)cc(N)c1Cl` [Compound 13] as the molecule, how does the pest or weed control at 35 g/ha read?
A: 60 to 74%

Same assay, conditions: post-emergence, 336 h, 70 g ai/ha, 14 days, read-out: Visual Growth Reduction (%) 14 Days After Application SETFA

Q: For `COC(=O)c1nc(-c2cc3nsnc3cc2F)cc(N)c1Cl` [Compound 13], which pest or weed control at 70 g/ha is on record?
A: 60 to 74%

Same assay, conditions: post-emergence, 336 h, 140 g ai/ha, 14 days, read-out: Visual Growth Reduction (%) 14 Days After Application SETFA

Q: For `COC(=O)c1nc(-c2cc3nsnc3cc2F)cc(N)c1Cl` [Compound 13], which pest or weed control at 140 g/ha is on record?
A: 85 to 94%

Test system: CHEAL: lambsquarters (Chenopodium album)
Experiment: Post-Emergent Test II herbicidal activity
Format: in vivo
Details: post-emergence, 336 h, 35 g ai/ha, 14 days, read-out: Visual Growth Reduction (%) 14 Days After Application CHEAL
Outline: as §1

Q: With `COC(=O)c1nc(-c2cc3nsnc3cc2F)cc(N)c1Cl` [Compound 13] as the molecule, how does the pest or weed control at 35 g/ha read?
A: 85 to 94%

Same assay, conditions: post-emergence, 336 h, 70 g ai/ha, 14 days, read-out: Visual Growth Reduction (%) 14 Days After Application CHEAL

Q: For `COC(=O)c1nc(-c2cc3nsnc3cc2F)cc(N)c1Cl` [Compound 13], which pest or weed control at 70 g/ha is on record?
A: 95 to 100%

Same assay, conditions: post-emergence, 336 h, 140 g ai/ha, 14 days, read-out: Visual Growth Reduction (%) 14 Days After Application CHEAL

Q: With `COC(=O)c1nc(-c2cc3nsnc3cc2F)cc(N)c1Cl` [Compound 13] as the molecule, how does the pest or weed control at 140 g/ha read?
A: 95 to 100%

Test system: BRSNN: oilseed rape, canola (Brassica napus)
Experiment: Post-Emergent Test II herbicidal activity
Format: in vivo
Details: post-emergence, 336 h, 35 g ai/ha, 14 days, read-out: Visual Growth Reduction (%) 14 Days After Application BRSNN
Outline: as §1

Q: For `COC(=O)c1nc(-c2cc3nsnc3cc2F)cc(N)c1Cl` [Compound 13], which pest or weed control at 35 g/ha is on record?
A: 95 to 100%

Same assay, conditions: post-emergence, 336 h, 70 g ai/ha, 14 days, read-out: Visual Growth Reduction (%) 14 Days After Application BRSNN

Q: Which pest or weed control at 70 g/ha does the source give for `COC(=O)c1nc(-c2cc3nsnc3cc2F)cc(N)c1Cl` [Compound 13] here?
A: 95 to 100%

Same assay, conditions: post-emergence, 336 h, 140 g ai/ha, 14 days, read-out: Visual Growth Reduction (%) 14 Days After Application BRSNN

Q: For `COC(=O)c1nc(-c2cc3nsnc3cc2F)cc(N)c1Cl` [Compound 13], which pest or weed control at 140 g/ha is on record?
A: 95 to 100%

Test system: EPHHL: wild poinsettia (Euphorbia heterophylla)
Experiment: Post-Emergent Test II herbicidal activity
Format: in vivo
Details: post-emergence, 336 h, 35 g ai/ha, 14 days, read-out: Visual Growth Reduction (%) 14 Days After Application EPHHL
Outline: as §1

Q: For `COC(=O)c1nc(-c2cc3nsnc3cc2F)cc(N)c1Cl` [Compound 13], which pest or weed control at 35 g/ha is on record?
A: 95 to 100%

Same assay, conditions: post-emergence, 336 h, 70 g ai/ha, 14 days, read-out: Visual Growth Reduction (%) 14 Days After Application EPHHL

Q: Which pest or weed control at 70 g/ha does the source give for `COC(=O)c1nc(-c2cc3nsnc3cc2F)cc(N)c1Cl` [Compound 13] here?
A: 95 to 100%

Same assay, conditions: post-emergence, 336 h, 140 g ai/ha, 14 days, read-out: Visual Growth Reduction (%) 14 Days After Application EPHHL

Q: Which pest or weed control at 140 g/ha does the source give for `COC(=O)c1nc(-c2cc3nsnc3cc2F)cc(N)c1Cl` [Compound 13] here?
A: 95 to 100%

Test system: HELAN: sunflower (Helianthus annuus)
Experiment: Post-Emergent Test II herbicidal activity
Format: in vivo
Details: post-emergence, 336 h, 35 g ai/ha, 14 days, read-out: Visual Growth Reduction (%) 14 Days After Application HELAN
Outline: as §1

Q: For `COC(=O)c1nc(-c2cc3nsnc3cc2F)cc(N)c1Cl` [Compound 13], which pest or weed control at 35 g/ha is on record?
A: 30 to 44%

Same assay, conditions: post-emergence, 336 h, 70 g ai/ha, 14 days, read-out: Visual Growth Reduction (%) 14 Days After Application HELAN

Q: Which pest or weed control at 70 g/ha does the source give for `COC(=O)c1nc(-c2cc3nsnc3cc2F)cc(N)c1Cl` [Compound 13] here?
A: 60 to 74%

Same assay, conditions: post-emergence, 336 h, 140 g ai/ha, 14 days, read-out: Visual Growth Reduction (%) 14 Days After Application HELAN

Q: With `COC(=O)c1nc(-c2cc3nsnc3cc2F)cc(N)c1Cl` [Compound 13] as the molecule, how does the pest or weed control at 140 g/ha read?
A: 75 to 84%

Test system: ABUTH: velvetleaf (Abutilon theophrasti)
Experiment: Post-Emergent Test II herbicidal activity
Format: in vivo
Details: post-emergence, 336 h, 35 g ai/ha, 14 days, read-out: Visual Growth Reduction (%) 14 Days After Application ABUTH
Outline: as §1

Q: For `COC(=O)c1nc(-c2cc3nsnc3cc2F)cc(N)c1Cl` [Compound 13], which pest or weed control at 35 g/ha is on record?
A: 75 to 84%

Same assay, conditions: post-emergence, 336 h, 70 g ai/ha, 14 days, read-out: Visual Growth Reduction (%) 14 Days After Application ABUTH

Q: Which pest or weed control at 70 g/ha does the source give for `COC(=O)c1nc(-c2cc3nsnc3cc2F)cc(N)c1Cl` [Compound 13] here?
A: 85 to 94%

Same assay, conditions: post-emergence, 336 h, 140 g ai/ha, 14 days, read-out: Visual Growth Reduction (%) 14 Days After Application ABUTH

Q: With `COC(=O)c1nc(-c2cc3nsnc3cc2F)cc(N)c1Cl` [Compound 13] as the molecule, how does the pest or weed control at 140 g/ha read?
A: 85 to 94%

From US9006250B2, “4-amino-6-(heterocyclic)picolinates and 6-amino-2-(heterocyclic)pyrimidine-4-carboxylates and their use as herbicides” (Dow AgroSciences, LLC, priority 2013, dated 2015)
